From patent US8198322B2, “Apoptotic and anti-tumor activities of metallo-salens” (Board of Regents, The University of Texas System, priority 2008, dated 2012)
Where two headings read alike, the source gives them in different places.

Columns and labels:
MCF-7 cells [1] = assay: Cell viability assay (MTT, DIC microscopy) at 20 μM; assay type: cell-based, human; design: key to Summary of cell viability activities (active/inactive): Y and N indicates active and inactive compounds respectively; Y and N indicates active and inactive compounds respectively; settings: for effect on cell viability (in words): up to 96 hrs; for Summary of cell viability activities (active/inactive): MCF-7 cells, 20 μM, 24-96 hrs, MTT
Procedure: (A-F): MCF-7 cells were treated with 20 μM metallo-salens and incubated for varying time periods (24-96 hrs). Viable cells were quantified using MTT assay. The percent viable cells (relative to control, treated with equivalent amount of DMSO) were plotted as a function of time for each compound. This experiment was repeated twice with 8 replicate treatments each time. Bars indicates standard errors of mean (SEM). Curves 1-42 in FIGS. 2A-2F, represent the viability curves for compounds 1-42 respectively. (A′-F′) DIC images of the corresponding MCF-7 cells that were treated with DMSO (control panel), or with 20 μM Mn(III)- and Fe(III)-salen complexes for 72 hrs showing the visual effects on cellular morphology and growth/death.
Cell viability assay: Approximately 10,000 MCF-7 cells were seeded into each well of a 96 well micro titer plate and incubated 24 hrs in presence of 150 μL DMEM. An additional 50 μL DMEM containing required amount of each metallo-salen to obtain 20 μM final concentrations (in 200 μL final volume) in 8 replicate wells were added. Control wells were treated with equivalent amount of dimethylsulfoxide (DMSO). The viability of the cells was assayed at 24, 48, 72 and 96 hrs post treatment by using both microscopic observation and MTT assay. For microscopic observation cells were stained with trypan blue for at least 10 minute and observed under Differential Interference Contrast (DIC) setting of a fluorescence microscope (Nikon Eclipse TE2000-U, Japan). The MTT assay was performed as described previously^42. In brief, 20 μL MTT (5 mg/ml in PBS) was added into each wells and incubated for 2 hrs under normal growth condition to allow the viable cell to convert MTT to formazan. Then the media was discarded and formazan crystals were dissolved by adding 100 μL of DMSO and incubating 2 hrs with continuous shaking. The absorbance of the lysates were directly measured at 560 nm using a micro plate reader (Fluostar-omega, BMG Labtech). The absorbance values (which are proportional to the viable cell) are plotted as a function of time. The studies were repeated twice with 8 replicates each time.
The inventors studied the effect of Mn(III)-salen and Fe(III)-salen derivatives on the cell viability of cultured breast cancer cells MCF-7 in order to investigate the biochemical effects of the derivatives. The cells were incubated alone or with 20 μM of each of the metallo-salen derivatives separately (compounds 1-45) for varying time periods (0-96 hrs). The viable cells were quantified using MTT assay and the percent of cell survived (relative to the control untreated cells) were plotted against time (FIGS. 2A-2F).

MCF-7 cells [2] = assay: Cytotoxicity assay (IC50 measurement, MTT); assay type: cell-based, human; settings: MCF-7, 96 hrs
Procedure: Cytotoxicity assay (IC50 measurement): The cytotoxicity of Fe(III)-salen and its derivatives was determined by using MTT assay as described previously^42. In brief, approximately 10,000 MCF-7 cells were seeded into each well of a 96 well micro titer plate and incubated 24 hrs in presence of 150 μL DMEM. An additional 50 μL DMEM containing required amount of each metallo-salen to obtain 0.05 to 60 μM final concentration (in 200 μL final volume) in 8 replicate wells were added. Control wells were treated with equivalent amount of DMSO. After 96 hrs of incubation, 20 μL of MTT (5 mg/mL) was added into each well and cell viability was assayed by measuring the formazan absorption at 560 nm as described above. The absorbance (at 560 nm) values were plotted against concentration of metallo-salens to determine the IC50. The studies were repeated twice with 8 replicates each time.
The concentration of the metal-complexes at which the conversion of MTT to formazan by viable cells is reduced by 50% compared to control cells is defined as the IC50. The percent of cell survival relative to the control cells were plotted as a function of concentration of the metallo-salen derivatives.

[3] = test system: colon cancer xenograft (CCL228 cells); assay: Colon cancer xenograft experiment; assay type: in vivo; settings: Athymic nude nu/nu mice, intraperitoneal, 10 mg/kg, twice a week
Procedure: Athymic nude nu/nu mice carrying the colon cancer xenograft were administered with 10 mg/kg of 3,3′-dimethoxy Mn(III)-salen (compound 6), 3,3′-dihydroxy Mn(III)-salphen (compound 9) and 3,3′-dihydroxy Mn(III)-salnaphen (compound 16) at 4 days interval, for over a period of 21 days. Tumor diameters were measured using a slide caliper prior to each administration and plotted (left panel). Bar indicated standard deviation (3 replicate experiments).
All the animal experiments were carried out using the IACUC approved protocol. For examining the efficacies of metallo-salen complexes, the inventors administered selected metallo-salen complexes in PBS intraperitoneally on Athymic nude nu/nu mice (Harlan) carrying the colon cancer xenografts. In brief, 2×10^6 human colon cancer cells (CCL228 cell in 100 μl of PBS) were injected subcutaneously (near the right back limb). Animals were examined daily for signs of tumor growth and behavior. Once the tumor size reached ˜25 mm^2 (2 to 3 weeks after injection of cells) the inventors administered the metallo-salen complexes intraperitoneally (in PBS solution, twice in a week, in three parallel replicates). Control mice were injected with equal volume of the diluents (PBS) alone. Prior to every new treatment with metallo-salen complexes, bi-dimensional measurements were carried out using calipers and cross-sectional area (tumor size) and data were plotted (FIG. 8A).
Xenograft experiment: To test the efficacy in controlling the tumor growth, the inventors administered compound compounds, 6, 9 and 16, intraperitoneally to six week old Athymic nude nu/nu mice carrying the colon cancer xenograft. In brief, 2×10^6 human colon cancer cells (CCL228 cell in 100 μl of PBS) were injected subcutaneously (near the right back limb). Animals were examined daily for signs of tumor growth and behavior. Once the tumor size reached ˜25 mm^2 (2 to 3 weeks after injection of cells) the inventors administered compounds 6, 9, and 16 intraperitoneally (separately in PBS solution, twice a week, 10 mg/kg dose). Every study was performed in three parallel replicates. […]

Animal toxicity = assay type: in vivo; settings: C57B mice, intraperitoneal, 5, 10 and 20 mg/kg, twice a week for 4 weeks
Procedure: The inventors intraperitoneally administered the Mn(III)-salen complexes (in PBS) at three different dozes (5, 10 and 20 mg/kg of mice, 6 weeks old normal C57B mice). The mice were treated twice a week for 4 weeks. After treatment, sign of toxicity were monitored (such as weight loss, mobility), animal behavior and health on a daily basis.

[4] = test system: MCF-7 and CCL228 cancer cells over MCF-10 normal breast epithelial cells; assay: IC50 comparison of cancer versus normal cell lines (MTT, FIG. 4); assay type: cell-based, human; settings: ratio of IC50 values
Procedure: IC50 values for each biochemically compounds were determined using MTT assay in three different cell lines that include MCF-7 (breast cancer), CCL228 (colon cancer) and MCF-10 (normal breast epithelial cells). IC50 values were for comparison for each compound (compounds 1-45) as marked.
To study the anti-tumor drug potential of Mn(III)- and Fe(III)-metallo salen derivatives, the inventors analyzed IC50 values for the each of the active compounds towards different cancer as well as normal cells. The IC50 values for different active compounds (compounds 1-42) for three different cell lines, MCF-7 (breast cancer), CCL228 (colon cancer) and MCF-10 (non malignant breast cells), are plotted in the bar graph in FIG. 4.

[5] = read-out: IC50 values for different complexes in MCF-7 cells
[6] = read-out: IC50 toward MCF-7 cells

Structure (SMILES) | Summary of cell viability activities (active/inactive) (MCF-7 cells [1]) | IC50 (MCF-7 cells [2]; [5]) | IC50 (MCF-7 cells [2]; [6]) | further results
CC(=O)[O-].COc1ccc(C=NCCN=Cc2ccc(OC)cc2[O-])c([O-])c1.[Mn+3] [compound 6, 4,4′-Dimethoxysalen Mn(III) acetate] | Y (6) | 12.3 µM | – | effect on cell viability (in words) (MCF-7 cells [1]; MCF-7, 20 μM): induced efficient cell death; tumor growth in colon cancer xenograft [3]: complete arrest of tumor growth; animal toxicity (Animal toxicity): did not have any significant animal toxicity; survival and body weight (Animal toxicity): survived without significant loss of body weight
CC(=O)[O-].[Mn+3].[O-]c1c(O)cccc1C=Nc1ccccc1N=Cc1cccc(O)c1[O-] [compound 9, 3,3′-Dihydroxysalphen Mn(III) acetate] | Y (9) | 17.3 µM | – | tumor growth in colon cancer xenograft [3]: complete arrest of tumor growth; animal toxicity (Animal toxicity): did not have any significant animal toxicity; survival and body weight (Animal toxicity): survived without significant loss of body weight
CC(=O)[O-].[Mn+3].[O-]c1c(O)cccc1C=Nc1cc2ccccc2cc1N=Cc1cccc(O)c1[O-] [compound 16, 3,3′-Dihydroxysalnaphen Mn(III) acetate] | Y (16) | 40.3 µM | – | tumor growth in colon cancer xenograft [3]: tumor size were grown exponentially; animal toxicity (Animal toxicity): did not have any significant animal toxicity; survival and body weight (Animal toxicity): survived without significant loss of body weight
CC(=O)[O-].COc1ccc([O-])c(C=Nc2cc3ccccc3cc2N=Cc2cc(OC)ccc2[O-])c1.[Mn+3] [compound 21, 5,5′-Dimethoxysalnaphen Mn(III) acetate] | Y (21) | 19.3 µM | – | –
[Cl-].[Fe+3].[O-]c1ccccc1C=NCCN=Cc1ccccc1[O-] [compound 22, Fe(III)-salen chloride] | Y (22) | 22.4 µM | – | effect on cell viability (in words) (MCF-7 cells [1]; MCF-7, 20 μM): highly effective in killing MCF-7 cells
COc1ccc(C=NCCN=Cc2ccc(OC)cc2[O-])c([O-])c1.[Cl-].[Fe+3] [compound 27, 4,4′-Dimethoxysalen Fe(III) chloride] | Y (27) | 12.4 µM | – | time to induce similar extent (more than 80%) of cell death (MCF-7 cells [1]; MCF-7, 20 μM): about 72 hrs; effect on cell viability (in words) (MCF-7 cells [1]; MCF-7, 20 μM): highly effective in killing MCF-7 cells; selectivity in killing cancer cells (MCF-7 and CCL228) over normal cells (MCF-10) [4]: about 4 fold
COc1ccc([O-])c(C=NCCN=Cc2cc(OC)ccc2[O-])c1.[Cl-].[Fe+3] [compound 28, 5,5′-Dimethoxysalen Fe(III) chloride] | Y (28) | 4.56 µM | – | cells killed in less than 24 hrs (MCF-7 cells [1]; MCF-7, 20 μM, less than 24 hrs): more than 80%; effect on cell viability (in words) (MCF-7 cells [1]; MCF-7, 20 μM): highly effective in killing MCF-7 cells
[Cl-].[Fe+3].[O-]c1ccccc1C=Nc1ccccc1N=Cc1ccccc1[O-] [compound 29, Fe(III)-salphen.chloride] | Y (29) | 1.25 µM | – | –
[Cl-].[Fe+3].[O-]c1c(O)cccc1C=Nc1ccccc1N=Cc1cccc(O)c1[O-] [compound 30, 3,3′-Dihydroxysalphen Fe(III) chloride] | Y (30) | – | 0.33 µM | –
COc1cccc(C=Nc2ccccc2N=Cc2cccc(OC)c2[O-])c1[O-].[Cl-].[Fe+3] [compound 33, 3,3′-Dimethoxysalphen Fe(III) chloride] | Y (33) | 4.15 µM | – | –
COc1ccc(C=Nc2ccccc2N=Cc2ccc(OC)cc2[O-])c([O-])c1.[Cl-].[Fe+3] [compound 34, 4,4′-Dimethoxysalphen Fe(III) chloride] | Y (34) | – | 0.68 µM | –
COc1ccc([O-])c(C=Nc2ccccc2N=Cc2cc(OC)ccc2[O-])c1.[Cl-].[Fe+3] [compound 35, 5,5′-Dimethoxysalphen Fe(III) chloride] | Y (35) | 3.11 µM | – | –
[Cl-].[Fe+3].[O-]c1ccccc1C=Nc1cc2ccccc2cc1N=Cc1ccccc1[O-] [compound 36, Fe(III)-salnaphen chloride] | Y (36) | – | 0.54 µM | –
[Cl-].[Fe+3].[O-]c1c(O)cccc1C=Nc1cc2ccccc2cc1N=Cc1cccc(O)c1[O-] [compound 37, 3,3′-Dihydroxysalnaphen Fe(III) chloride] | Y (37) | – | 0.22 µM | –
COc1cccc(C=Nc2cc3ccccc3cc2N=Cc2cccc(OC)c2[O-])c1[O-].[Cl-].[Fe+3] [compound 40, 3,3′-Dimethoxysalnaphen Fe(III) chloride] | Y (40 | 1.5 µM | – | –
COc1ccc(C=Nc2cc3ccccc3cc2N=Cc2ccc(OC)cc2[O-])c([O-])c1.[Cl-].[Fe+3] [compound 41, 4,4′-Dimethoxysalnaphen Fe(III) chloride] | Y (41) | – | 0.53 µM | –
